Drawing on ChEMBL document CHEMBL3734680, “Synthesis and relationship of stability and biological activity of new DSS and TMP conjugates” (Medchemcomm, 2015), this text covers Activity and half-life for four compounds.

Data set [1] relates to H9c2. As to the kind of experiment: Induction of mitochondrial biogenesis in rat H9c2 cells assessed as mitochondrial DNA replication after 24 hrs by Mitotracker/DAPI/FITC-staining based immunofluorescence analysis relative to control. In kind it is functional, cell-based.
Data set [2] concerns H9c2. Description: Cardioprotective activity against t-BHP-induced injury in rat H9c2 cells preincubated for 1 hr followed by t-BHP challenge for 12 hrs by MTT assay. Format: functional, cell-based. In general terms: Formazan colour is commonly taken as a measure of viable cells.
Data set [3] has as its system H9c2. As to the kind of experiment: Induction of mitochondrial biogenesis in rat H9c2 cells assessed as upregulation of Tfam mRNA expression at 30 uM after 24 hrs by RT-PCR analysis relative to control. In kind it is functional, cell-based.
Data set [4] relates to H9c2. As to the kind of experiment: Cardioprotective activity against doxorubicin-induced injury in rat H9c2 cells preincubated for 1 hr followed by doxorubicin challenge for 24 hrs by MTT assay. In kind it is functional, cell-based.
The next data set concerns carboxyesterase. Description: Half life of compound assessed as carboxyesterase (unknown origin)-mediated drug degradation at 0.655 x 10^3 uM by HPLC analysis. In kind it is ADME. Conditions: human.
For data set [5], the system named is H9c2. As to the kind of experiment: Induction of mitochondrial biogenesis in rat H9c2 cells assessed as upregulation of PGC-1beta mRNA expression at 30 uM after 24 hrs by RT-PCR analysis relative to control. In kind it is functional, cell-based.
The test system of data set [6] is H9c2. As to the kind of experiment: Cardioprotective activity against doxorubicin-induced injury in rat H9c2 cells assessed as inhibition of LDH leakage preincubated for 1 hr followed by doxorubicin challenge for 24 hrs. Format: functional, cell-based. A general note: LDH in the medium is a marker of cell lysis.

SMILES strings stand for the structures. The source made the active and inactive calls.

As usually defined, the half-life is the time needed for the level to fall by half in the phase considered. As for `C=CCC(CC=C)(OC(=O)[C@@H](Cc1ccc(OC(C)=O)c(OC(C)=O)c1)OC(C)=O)c1nc(C)c(C)nc1C`, the outcome in the data set on H9c2 [1], in the data set on H9c2 [2], in the data set with H9c2 [3] and with H9c2 [5] was Active. Further, the Activity result in the data set with H9c2 [4] and with H9c2 [6] was “Dose-dependent effect” throughout. Also, the half-life with carboxyesterase amounted to 20.5 min.

For `CC(=O)Oc1ccc(CC(OC(C)=O)C(=O)OCc2nc(C)c(C)nc2C)cc1OC(C)=O` (stereo not drawn), in the data set on H9c2 [2], the result was Active. Also, the half-life with carboxyesterase was determined as 10.3 min.

On to `C=CCC(OC(=O)[C@@H](Cc1ccc(OC(C)=O)c(OC(C)=O)c1)OC(C)=O)c1nc(C)c(C)nc1C` (stereo partly drawn), for which, in the data set with H9c2 [2], the outcome was Active. For the same compound, the half-life with carboxyesterase was 11.3 min.

As for `CC(=O)Oc1ccc(C[C@@H](OC(C)=O)C(=O)OC(C)c2nc(C)c(C)nc2C)cc1OC(C)=O` (stereo partly drawn), the outcome in the data set with H9c2 [2] was Active. For the same compound, in the data set with carboxyesterase, the half-life was found to be 10.6 min.
